# Experimental data published in US6534056B1, “Therapeutic and diagnostic uses of protein tyrosine phosphatase TC-PTP” (McGill University, priority 1998, dated 2003).
# Legend:
# EFM4−/− cells = assay: Survival (MTT conversion) 24 h after methyl methane-sulfonate treatment, TC-PTP knock-out cell line; type: cell-based, murine; settings: 5 μM MMS, 24 h after treatment, FIG. 5D
# Description: (§1) Cell proliferation and survival. Primary MEF+/+ and −/−, and TC-PTP+/+ and TC-PTP−/− cell, lines were seeded in 24-well cell culture plates at a density of […] in DMEM with 10% FBS. Cell number was determined after trypsinization by trypan blue exclusion or by MTT assay (Mosmann (1983) J. Immunol. Methods. 62:55-63) at day 1, 3, 5 and 7 after plating. Cells were treated with gamma- or UV-irradiation at doses indicated using a Gammacell 1000 (Atomic Energy of Canada) with a 137Cs source and Stratalinker (Stratagene) respectively. After irradiation, the cells were plated in triplicate on 24-well plates. Survival was evaluated by MTT viability assays 48 hr post-radiation.
# (§2) The function of cell cycle checkpoints is to verify the physical status of the genomic DNA. […] To assess the effects of DNA-damaging agents such as γ-radiation, UV-C radiation and methyl methane-sulfonate (MMS) treatment on TC-PTP−/− cells, we first evaluated at different times after treatment, the effect of 1000 rads of γ-radiation on the survival of the EFM7+/+, EFM3+/− and EFM4−/− cells. […] Conversion of MTT was evaluated as a measure of survival at 8, 24 and 48 h after the treatment and it is expressed as the percentage of OD570 measurements of treated to untreated wells. […]
# (§3) Another DNA-damaging agent used was MMS, which is a DNA alkylating agent that results in single-strand breaks. […] Results are expressed as in A.
# EFM7+/+ cells = assay: Survival (MTT conversion) 24 h after methyl methane-sulfonate treatment, wild-type cell line; type: cell-based, murine; settings: 5 μM MMS, 24 h after treatment, FIG. 5D
# Description: as §1, §2, §3
smiles,measurement,setting,value
"COS(C)(=O)=O [MMS, methyl methane-sulfonate]",viability after MMS treatment,EFM4−/− cells,strong decrease in the viability
same,viability after MMS treatment,EFM7+/+ cells,slight decrease
